US5902794A (priority 1997, dated 1999)
Entries after “also recorded” stand apart in the source; their conditions may differ. Where two headings read alike, the source gives them in different places.

Legend:
[1] = test system: breast (MCF-7) and (LS-174T) colon cancer cell lines; test: growth inhibition of breast (MCF-7) and colon (LS-174T) cancer cell lines; type: cell-based, human; conditions: 50 micromolar
[2] = test system: R^I cAMP receptor protein (MDA-MB-231); test: photoaffinity labelling of R^I cAMP receptor protein, MDA-MB-231; type: cell-based, human; conditions: 1 mM, 3 days; control 1.0
Method: (§1) M is marker proteins of known molecular weight.
(§2) The incubations were carried out at 23° C. for 60 minutes in 96-well immunoplates. The reaction mixtures were then irradiated for 30 seconds at 254 nm, placing a Mineralite UVS-11 hand lamp directly onto the plate. The samples were mixed with 25 microliters of 3× sample buffer (3% SDS, 15% beta-mercaptoethanol, 30 mM Tris, 30% glycerol, 1% bromophenol blue saturated solution), boiled for 3 minutes, and centrifuged at 700×g for five minutes. The samples containing 50-100 micrograms of protein were subjected to 0.05% SDS-12% PAGE. The gels were fixed, dried, and exposed to X-ray films overnight. The protein concentrations were determined by the method of Lowry et al., (J. Biol. Chem. 193: 265-275, 1951) with bovine serum albumin as standard.
(§3) The levels of the receptor proteins are expressed relative to the R^I level in the untreated control cells of MDA-MB-231 and LS-174T, which are each set equal to 1.0 O.D.; the scale was expanded to differentiate the lower intensity bands.

[3] = test system: R^II cAMP receptor protein (MDA-MB-231); test: photoaffinity labelling of R^II cAMP receptor protein, MDA-MB-231; type: cell-based, human; conditions: 1 mM, 3 days; relative to control R^I
Method: as §1, §2, §3

[4] = test system: R^I cAMP receptor protein (LS-174T); test: photoaffinity labelling of R^I cAMP receptor protein, LS-174T; type: cell-based, human; conditions: 1 mM, 3 days; control 1.0
Method: as §1, §2, §3

[5] = test system: R^II cAMP receptor protein (LS-174T); test: photoaffinity labelling of R^II cAMP receptor protein, LS-174T; type: cell-based, human; conditions: 1 mM, 3 days; relative to control R^I
Method: as §1, §2, §3

[6] = test system: MDA-MB-231; test: growth of MDA-MB-231 cells; type: cell-based; conditions: Homo sapiens, MDA-MB-231, 72 h; 1 mM, 3 days
Method: as §1
(§4) All breast cancer cell lines were grown in IMEM supplemented with 10% fetal bovine serum, 20 mM HEPES, penicillin-streptomycin, and extra glutamine. Colon carcinoma cell lines were grown in EMEM supplemented with 10% FBS, EMEM, NEAA, HEPES 20 mM, extra glutamine, and penicillin-streptomycin. The cells were grown at 37° C. in humidified incubators in an atmosphere of 5% CO2.
(§5) For cell growth experiments, 2-3×10^5 cells/60 mm dish were seeded, and 24 hours later (Day 0), the medium was removed, and fresh medium and the additives were added then and every 48 hours thereafter The compounds of the present invention were added using 100× concentrated stock solutions. At desired times, cell counts in duplicate were performed on a Coulter counter after harvesting the cells with gentle trypsinization.

[7] = test system: LS-174T; test: growth of LS-174T cells; type: cell-based; conditions: Homo sapiens, LS174T, 72 h; 1 mM, 3 days
Method: as §1, §4, §5

[8] = test system: R^I and R^II cAMP receptor proteins in breast (MDA-MB-231) and colon (LS-174T) cancer cells; test: R^I and R^II cAMP receptor protein levels in breast and colon cancer lines (FIG. 6); type: cell-based, human; conditions: DBcAMP 1 mM
Method: as §1, §2

[9] = test system: p21 ras protein (MCF-7 cells); test: Western blotting of p21 ras protein in MCF-7 cells; type: cell-based, human; conditions: 500 microM
Method: Western blotting of p21 protein was performed as described below. […] V is cell lysate from Ha-MuSV-transformed NIH3T3 clone 13-3B-4. M, marker proteins of known molecular weight.
Cellular proteins present in cell extracts were separated by 12% SDS-PAGE and transferred to nitrocellulose sheets in transfer buffer (25 mM Tris, 192 mM glycine, 20% methanol, pH 7.4). Nitrocellulose sheets were washed and first incubated with 3% bovine serum albumin in NTE-NP40 (50 mM Tris-HCl, pH 7.5, 150 mM NaCl, 2 mM EDTA, 0.1% Nonidet P-40) for three hours at 37° C. and then sequentially incubated with medium containing p21 monoclonal antiserum Y13-259 directed against the Ha-MuSV-encoded p21 for sixteen hours at 4° C., rabbit anti-rat IgG for 2.5 hours in an ice-water bath, and 5×10^5 cpm/ml ^125 I-protein A for one hour in an ice-water bath. The nitrocellulose sheets were air-dried and exposed to Kodak XAR film for 12-36 hours at -20° C. Comparison of the resulting autoradiograms with others in which normal rat serum was substituted for p21 monoclonal antibody permitted identification of p21. To provide a reference p21, cell lysates were prepared from NIH 3T3 clone 13-3B-4 that had been transfected with Ha-MuSV DNA.
The levels of p21 protein are expressed relative to the p21 level in the untreated control cells, which is set equal to 1.0 O.D.

[10] = test system: DMBA-1; test: growth of transplantable DMBA-1 rat mammary carcinoma; type: in vivo; conditions: pellet with 10 mg cAMP analogue, day 7
Method: DMBA-1, a variant of primary hormonedependent DMBA tumor,
hormoneindependent and transplantable.
8Cl-cAMP and DBcAMP were given as a 20mg pellet consisting of 10 mg of […]

[11] = test system: DMBA-induced mammary carcinomas; test: in vivo growth of DMBA-induced mammary carcinomas in rats; design: species or system rat; conditions: DBcAMP treatment
Method: […] |DMBA-induced mammary carcinomas in rats […] | 10 mg. cholesterol), was implanted on day 0 and day 14.

[12] = test system: transplantable DMBA-1 and MNA-2 rat mammary carcinomas; test: short-term assays with transplantable rat mammary carcinomas; type: in vivo; conditions: DB-cAMP pellet
[13] = test system: Molt-4; test: growth inhibition of Molt-4; type: cell-based, human
[14] = test system: R^I cAMP receptor protein (Molt-4); test: R^I cAMP receptor protein in Molt-4 leukemic cells; type: cell-based, human; conditions: 1 mmol/L, three days
From the text: (§6) M marker proteins of known molecular weight. […] The resulting supernatants were used as cell lysates. […] ND=nondetectable.

[15] = test system: c-myc protein; test: c-myc protein level, Western blotting (FIG. 9B); type: cell-based, human; conditions: 1 mmol/L, three days
Method: The cells were grown in suspension culture in RPMI 1640 medium supplemented with 10% fetal bovine serum, penicillin (50 U/ml), streptomycin ([…]), 10 mmol/L HEPES buffer, and extra glutamine. […] Surface antigen analysis of HL-60 cells was performed by flow cytometry using a panel of monoclonal antibodies reactive with either myeloid cells or monocytic cells. Terminal deoxynucleotidyl transferase (TdT) was assayed by an immunoperoxidase method using a TdT fluorescence kit. Western blotting of c-myc protein was performed using c-myc antibody 15206D11 (Scripps Clinic and Research Foundation, LaJolla, Calif.).
as §6

[16] = test system: hormone-dependent breast cancer lines; conditions: millimolar concentrations; previously reported; cited from earlier work
[17] = test system: human oat cell lung carcinoma cells; conditions: in vitro; cited from earlier work
[18] = test system: spindle cell sarcoma with multiple metastasis; conditions: cited from earlier work
[19] = test system: hormone-dependent mammary tumors / DMBA-induced mammary carcinomas; conditions: cited from earlier work
[20] = test system: neuroblastoma cells; conditions: conflicting studies; cited from earlier work
[21] = test system: cultured human fibroblasts; conditions: cited from earlier work

CCCC(=O)Nc1ncnc2c1ncn2[C@@H]1O[C@@H]2COP(=O)(O)O[C@H]2[C@H]1OC(=O)CCC [DBcAMP, N^6,O^2' -dibutyryl-cAMP]
growth inhibition, in words [1]: no growth inhibition
R^I relative level [2]: 1.0 ± 0.1
R^II relative level [3]: 0.07 ± 0.01
R^I relative level [4]: 0.80 ± 0.10
R^II relative level [5]: 0.15 ± 0.02
activity at 1000 µM [6]: 100%
activity at 1000 µM [7]: 85%
R^I and R^II receptor levels, in words [8]: remained unchanged; also recorded: did not appreciably affect the R^I or R^II receptor levels
p21 level, in words [9]: slight reduction in p21 level
Change in mean tumor volume [10]: 2.60 cm^3
Change in mean tumor volume (%) ([10]; none = 100): 99%
tumor growth, in words [11]: only arrests this tumor growth without producing regression
sensitivity of tumors [12]: completely resistant
50% growth inhibition, in words [13]: 50% growth inhibition could not be obtained
R^I receptor protein, in words [14]: remained without appreciable change
c-myc protein level, in words [15]: did not affect the c-myc protein level
growth inhibition, hormone-dependent breast cancer lines [16]: growth inhibition only in the hormone-dependent breast cancer lines
differentiation [17]: differentiated into neurone-like cells
tumor size ([18]; 3-6 mg/kg i.v. daily over five hours, days 1-9 and 47-56): plateaued and even decreased during both infusion periods
histology of tumors ([18]; biopsies days 2, 14, 60): evidence of differentiation during the DBcAMP infusion
cAMP binding and cAMP-dependent protein kinase activity ([19]; cytosol and nuclei, during growth arrest): increase
estrogen binding ([19]; during growth arrest): estrogen binding decreases
translated p21 protein ([19]; preceding regression): sharp reduction
tumor regression ([19]; rat, in vivo): regression of hormone-dependent mammary tumors
tumorigenicity [20]: reported to be decreased; also recorded: unaltered
DNA synthesis ([21]; added during first eight hours after serum addition): subsequent DNA synthesis was not delayed
DNA synthesis ([21]; added more than eight hours after serum addition): inhibitory
